# Earlier results in PMC6413085, “A Validated HPLC-MS/MS Assay for 14-O-[(4,6-Diaminopyrimidine-2-yl)thioacetyl] Mutilin in Biological Samples and Its Pharmacokinetic, Distribution and Excretion via Urine and Feces in Rats” (Molecules, 2019).
# Where two headings read alike, the source gives them in different places.
# Experiments:
# [1] = rat, in vivo, cited from earlier work; for time at which Cmax was achieved: 5 mg/kg
# [2] = in vivo; cited from earlier work
# [3] = rabbit, in vivo, iv, 25 mg/kg; cited from earlier work
SMILES,time at which Cmax was achieved ([1]; iv),time at which Cmax was achieved ([1]; po),absolute bioavailability following oral administration ([1]; po),absolute bioavailability following oral administration [2],time at which Cmax was achieved [3]
"C=C[C@]1(C)C[C@@H](OC(=O)CSc2nnc(N)s2)[C@]2(C)[C@H](C)CC[C@]3(CCC(=O)[C@H]32)[C@@H](C)[C@@H]1O [14-O-[(2-amino-1,3,4-thiadiazole-5-yl)thioacetyl] mutilin]",0.08 h,0.75 h,35.81%,,
C=C[C@]1(C)C[C@@H](OC(=O)CSC(C)(C)CNC(=O)[C@H](N)C(C)C)[C@]2(C)[C@H](C)CC[C@]3(CCC(=O)[C@H]32)[C@@H](C)[C@@H]1O [valnemulin],,,100%,36.68%,
C=CC1(C)CC(OC(=O)CSc2nc(N)cc(O)n2)C2(C)C(C)CCC3(CCC(=O)C32)C(C)C1O (stereo not drawn) [14-O-[(4-amino-6-hydroxy-pyrimidine-2-yl)thioacetyl] mutilin],,,,,0.08 h
